From patent US11597729B2, “Tropomyosin receptor kinase inhibitor, preparation method therefor and use thereof” (JIANGSU VCARE PHARMATECH CO., LTD., priority 2018, dated 2023)

Experiments:
BaF3-LMNA-NTRK1 = assay: Growth inhibition test, CellTiter-Glo, BaF3-LMNA-NTRK1 cells; format: cell-based; conditions: 72 hours incubation, read-out: Cell GI50 BaF3-LMNA-NTRK1
Protocol: (§1) Growth Inhibition Test for Tel-NTRK1-BaF3 and BaF3-LMNA-NTRK1 Cells
(§2) In this experiment, the CellTiter-Glo cell proliferation fluorescence assay was used to test the growth inhibitory effect of a compound on tel-NTRK1-BaF3 and BaF3-LMNA-NTRK1 transgenic cells, and the half maximal growth inhibitory concentration GI50 of the compound on the cells was obtained.
A compound to be tested was dissolved in DMSO to formulate 10 mM of a mother solution. The mother solution was 3× diluted to 10 mM, 3.333 mM, 1.111 mM, 0.370 mM, 0.123 mM, 0.041 mM, 0.014 mM, 0.005 mM, and 0.002 mM. The prepared solutions were each stored in a 0.5 ml sterilized dorft tube (Corning, USA). […]
(§3) Logarithmic growth phase cells (2000-2500 cells/well) were inoculated in a 12×8 96-well white opaque cell culture plate (Corning 3570, NY, USA) in a volume of 100 μL per well, and a drug was added to the cell plate (0.1 μL/well) at the final concentration of the compound of 10 μM, 3.3 μM, 1.1 μM, 0.37 μM, 0.12 IM, 0.04 μM, 0.014 IM, 0.005 μM, and 0.002 μM (0.4 uL of the drug solution was added to 400 ul of the cell homogenate, and then mixed uniformly, and the resulting mixture was added at 100 ul per well). The plate was incubated at 37° C. in a 5% CO2 incubator for 72 hours, and then 20 μL CellTiter-Glo cell proliferation fluorescence assay reagent was added. […]

TrkB = TrkB (Homo sapiens, UniProt Q16620); assay: Inhibitory activity test for Trk kinases (γ-33P-ATP isotope test), TrkB; format: biochemical; conditions: 33P-ATP 10 μM, 2 h reaction; read-out: Kinase IC50 TrkB
Protocol: (§4) Inhibitory Activity Test for Trk Kinases
(§5) In this experiment, the γ-^33P-ATP isotope test was used to test the inhibition effect of a compound on kinases TrkA, TrkB and TrkC, and the half maximal inhibitory concentration IC50 of the inhibitory activity of the compound on the enzymes was obtained.
(§6) A compound was dissolved in 100% DMSO to a particular concentration, and then the resulting solution was gradient-diluted by an automatic loading device to different concentrations of the test samples (DMSO dissolving solutions).
(§7) 3.1. The reaction substrate was diluted using the base reaction buffer;
(§8) 3.2. The kinase was added into the substrate solution and mixed gently and uniformly;
(§9) 3.3. The compounds of different concentrations diluted in 100% DMSO were added into the kinase solution using an automatic loading system, and incubated for 20 min at room temperature;
(§10) 3.4. ^33P-ATP (10 μM, 10 μCi/μl) was added at room temperature to initiate the kinase reaction, and the reaction was carried out for 2 h.
(§11) The reaction solution was subjected to an ion exchange filtration system to remove unreacted ATP and the generated ADP ions during the reaction. Then, the radiometric quantity of ^33P isotope in the substrate was detected.
(§12) The kinase activity in the system with the addition of the inhibitors of different concentrations was calculated from the radiometric quantity, to obtain the inhibitory effect of the compounds with different concentrations on the kinase activity. Fitting was performed using graphpad prism to obtain IC50 values of the compounds for inhibition.

TrkA = TrkA (Homo sapiens, UniProt P04629); assay: Inhibitory activity test for Trk kinases (γ-33P-ATP isotope test), TrkA; format: biochemical; conditions: 33P-ATP 10 μM, 2 h reaction; read-out: Kinase IC50 TrkA
Protocol: as §4, §5, §6, §7, §8, §9, §10, §11, §12

[1] = Metabolic stability in human liver microsomes; format: in vitro ADME
Protocol: Testing on Metabolic Stability of Compounds in Human Liver Microsomes
The total volume of an incubation system was 250 μL, and 50 mmol/L PBS buffer (pH=7.4) was used to prepare incubation solutions of liver microsomes from various species with a protein concentration of 0.5 mg/mL. Before the start of the incubation, 2.5 μL of a 100 μmol/L compound to be tested was mixed with 197.5 μL of the above incubation solution, pre-incubated in a 37° C. water bath for 5 min, and then added with a 50 μL reducing coenzyme II solution (5 mmol/L) that was likewise pre-incubated for 5 min to start the reaction (in the reaction system, the protein content of liver microsomes from various species was 0.5 g/L, and the final concentration of the compound to be tested was 1 μmol/L), incubated in a 37° C. water bath with shaking, and taken out at 0, 5, 15, 30, and 60 min. 600 μL of a methanol solution of mixed positive and negative internal standards with internal standards Terfenadine (positive ion internal standard, 25 ng/mL) and Tolbutamide (negative ion internal standard, 50 ng/mL) was immediately added to terminate the reaction. The incubation solution after termination was shaken for 2 min and centrifuged (4° C., 16000 r/min) for 10 min, and the supernatant was taken for LC-MS/MS detection to quantitatively analyze the remaining amount of the parent drug. (DMSO<0.1%).
The concentration of the compound at 0 min incubation was regarded as 100%, and the concentrations at other incubation time points were converted into the remaining percentages. The natural logarithm of the remaining percentage at each time point was linearly regressed against the incubation time, and the slope k was calculated. According to the formula T1/2=−0.693/k, the in vitro half-life was calculated. Clearance in liver microsomes (CLint (μL/min/mg protein)=Ln (2)*1000/T1/2 (min)/Protein Conc(mg/ml)).
Test data of metabolic stability of the compounds of the present invention in human liver microsomes are listed in detail in table 3: […]

TrkC = TrkC (Homo sapiens, UniProt Q16288); assay: Inhibitory activity test for Trk kinases (γ-33P-ATP isotope test), TrkC; format: biochemical; conditions: 33P-ATP 10 μM, 2 h reaction; read-out: Kinase IC50 TrkC
Protocol: as §4, §5, §6, §7, §8, §9, §10, §11, §12

BaF3-tel-NTRK1 = assay: Growth inhibition test, CellTiter-Glo, tel-NTRK1-BaF3 cells; format: cell-based; conditions: 72 hours incubation, read-out: Cell GI50 BaF3-tel-NTRK1
Protocol: as §1, §2
A compound to be tested was dissolved in DMSO to formulate 10 mM of a mother solution. The mother solution was 3× diluted to 10 mM, 3.333 mM, 1.111 mM, 0.370 mM, 0.123 mM, 0.041 mM, 0.014 mM, 0.005 mM, and 0.002 mM. The prepared solutions were each stored in a 0.5 ml sterilized dorft tube (Corning, USA). In addition, an equal volume of DMSO solvent was used as a blank control. With 10 concentration gradients, the plate was stored in vacuum at −20° C.
The tel-NTRK1-BaF3 and BaF3-LMNA-NTRK1 cell lines were cultured with RPMI 1640 (Corning, N.Y., USA)+10% fetal bovine serum (Gibico, Invitrogen, USA). After the cells were thawed, they were cultured for two generations to be tested.
as §3, with “added. The plate was allowed to stand for 10 min, and read in the Envision Plate-Reader.” for “added.”
A corresponding […] value RLU of each well was obtained by reading in the Envision Plate-reader. […]
The biochemical activity of the compounds of the present invention was determined by the above experiment, and the measured GI50 values are shown in table 2: […]

Chain of TrkB (Q16620 32-822, species assumed): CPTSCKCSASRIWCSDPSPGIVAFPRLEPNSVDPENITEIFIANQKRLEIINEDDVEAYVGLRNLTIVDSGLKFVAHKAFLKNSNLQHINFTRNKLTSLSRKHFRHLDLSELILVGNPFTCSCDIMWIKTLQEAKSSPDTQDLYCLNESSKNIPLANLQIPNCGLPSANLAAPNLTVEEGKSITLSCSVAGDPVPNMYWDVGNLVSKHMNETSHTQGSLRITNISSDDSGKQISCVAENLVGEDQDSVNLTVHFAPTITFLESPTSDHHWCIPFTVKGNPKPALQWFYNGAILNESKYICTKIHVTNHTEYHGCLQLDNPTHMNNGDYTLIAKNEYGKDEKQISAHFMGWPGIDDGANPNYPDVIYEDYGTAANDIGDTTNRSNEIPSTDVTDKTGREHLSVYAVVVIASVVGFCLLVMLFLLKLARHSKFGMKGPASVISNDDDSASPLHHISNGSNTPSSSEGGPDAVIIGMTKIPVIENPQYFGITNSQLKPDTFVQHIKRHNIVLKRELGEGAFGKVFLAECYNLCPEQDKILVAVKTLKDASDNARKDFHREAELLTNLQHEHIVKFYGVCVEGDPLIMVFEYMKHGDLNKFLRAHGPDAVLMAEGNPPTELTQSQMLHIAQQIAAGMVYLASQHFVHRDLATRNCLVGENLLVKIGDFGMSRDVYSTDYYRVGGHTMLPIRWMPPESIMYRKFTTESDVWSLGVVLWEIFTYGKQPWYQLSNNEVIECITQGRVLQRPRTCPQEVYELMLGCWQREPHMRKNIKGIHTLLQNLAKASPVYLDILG
Chain of TrkC (Q16288 32-839, species assumed): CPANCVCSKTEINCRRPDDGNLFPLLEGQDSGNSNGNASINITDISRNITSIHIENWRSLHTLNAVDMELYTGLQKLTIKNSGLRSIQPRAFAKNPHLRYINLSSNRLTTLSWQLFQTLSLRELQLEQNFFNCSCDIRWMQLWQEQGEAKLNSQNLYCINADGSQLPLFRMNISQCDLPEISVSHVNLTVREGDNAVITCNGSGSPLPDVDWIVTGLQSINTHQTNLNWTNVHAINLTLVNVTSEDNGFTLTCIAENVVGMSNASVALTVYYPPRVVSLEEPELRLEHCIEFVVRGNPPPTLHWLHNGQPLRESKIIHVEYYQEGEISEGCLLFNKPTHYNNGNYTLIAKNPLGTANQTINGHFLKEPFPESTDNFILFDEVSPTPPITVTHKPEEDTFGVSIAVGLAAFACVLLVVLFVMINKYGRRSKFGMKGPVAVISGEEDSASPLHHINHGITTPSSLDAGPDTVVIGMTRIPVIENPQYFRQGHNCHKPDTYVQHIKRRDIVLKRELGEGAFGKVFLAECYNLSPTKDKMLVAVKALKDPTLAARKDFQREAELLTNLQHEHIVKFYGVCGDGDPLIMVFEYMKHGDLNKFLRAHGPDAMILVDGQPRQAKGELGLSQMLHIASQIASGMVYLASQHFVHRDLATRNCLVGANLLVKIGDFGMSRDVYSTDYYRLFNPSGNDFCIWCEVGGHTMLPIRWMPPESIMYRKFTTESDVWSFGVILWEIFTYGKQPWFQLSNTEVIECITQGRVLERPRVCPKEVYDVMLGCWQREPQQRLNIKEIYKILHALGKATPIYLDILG
Chain of TrkA (P04629 33-796, species assumed): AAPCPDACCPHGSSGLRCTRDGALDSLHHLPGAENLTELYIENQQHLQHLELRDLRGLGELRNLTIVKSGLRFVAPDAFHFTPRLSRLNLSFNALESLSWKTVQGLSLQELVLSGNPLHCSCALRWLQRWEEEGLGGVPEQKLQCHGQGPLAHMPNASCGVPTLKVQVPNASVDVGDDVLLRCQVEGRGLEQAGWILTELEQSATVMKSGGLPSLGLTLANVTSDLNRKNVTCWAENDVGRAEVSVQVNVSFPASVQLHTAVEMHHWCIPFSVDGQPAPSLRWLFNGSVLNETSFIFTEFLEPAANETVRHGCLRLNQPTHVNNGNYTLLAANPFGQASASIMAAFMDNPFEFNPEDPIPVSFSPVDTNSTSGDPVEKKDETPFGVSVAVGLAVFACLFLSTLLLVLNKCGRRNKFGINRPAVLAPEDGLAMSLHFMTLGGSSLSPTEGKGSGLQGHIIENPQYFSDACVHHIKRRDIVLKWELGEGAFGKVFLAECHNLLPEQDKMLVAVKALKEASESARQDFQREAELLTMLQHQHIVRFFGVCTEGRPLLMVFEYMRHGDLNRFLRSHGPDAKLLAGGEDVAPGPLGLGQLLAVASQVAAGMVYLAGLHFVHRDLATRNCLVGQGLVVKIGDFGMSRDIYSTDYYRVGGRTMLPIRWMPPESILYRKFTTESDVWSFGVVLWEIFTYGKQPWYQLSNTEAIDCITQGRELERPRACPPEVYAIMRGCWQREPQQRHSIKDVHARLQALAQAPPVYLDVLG

Q: What does the source list for `O=C1NN(C2CC2)CCc2ncc(F)cc2[C@H]2CCCN2c2ccn3ncc1c3n2` [Example 1, (R,I^3E,I^4E)-6-cyclopropyl-3^5-fluoro-6,7-diazepine-1(5,3)-pyrazolo[1,5-a]pyrimidine-3(3,2)-pyridine-2(1,2)-pyrrolidine cyclooctane-8-one]?
A: GI50 (BaF3-LMNA-NTRK1): 15.1 nM; IC50 (TrkB): 0.57 nM; IC50 (TrkA): 4.23 nM; Remaining % (60 min) ([1]; human liver microsomes 0.5 mg/mL, compound 1 μmol/L, 37° C., 60 min): 52.26%; Negative control Remaining % (60 min) ([1]; human liver microsomes, negative control incubation, 60 min): 98.1%; half-life at 1 μmol/L ([1]; human, liver microsomes, pH 7.4): 1.11 h; microsomal CLint at 1 μmol/L ([1]; pH 7.4, human liver microsomes 0.5 mg/mL, compound 1 μmol/L, read-out: Clint (μL/min/mg protein)): 20.8 µL/min/mg; IC50 (TrkC): 0.25 nM; GI50 (BaF3-tel-NTRK1): 12 nM
